This passage reports MIC50, Activity and Drug uptake results from ChEMBL document CHEMBL5143523, “Construction and activity evaluation of novel benzodioxane derivatives as dual-target antifungal inhibitors” (Eur J Med Chem, 2022).

Data set [1] deals with Candida albicans. The data set can be described thus: Antifungal activity against Candida albicans ATCC 10231 assessed as fungal growth inhibition measured after 72 hrs by CLSI protocol based liquid medium dilution method. It is filed as functional.
The test system of data set [2] is Candida albicans. The data set can be described thus: Antifungal activity against fluconazole resistant Candida albicans strain 103 assessed as fungal growth inhibition measured after 72 hrs by CLSI protocol based liquid medium dilution method. It is filed as functional.
The subject of data set [3] is Candida albicans. The data set can be described thus: Antifungal activity against fluconazole resistant Candida albicans strain CaR assessed as fungal growth inhibition measured after 72 hrs by CLSI protocol based liquid medium dilution method. It is filed as functional.
For data set [4], the system named is Candida albicans. The data set can be described thus: Antifungal activity against fluconazole resistant Candida albicans strain 904 assessed as fungal growth inhibition measured after 72 hrs by CLSI protocol based liquid medium dilution method. It is filed as functional.
Data set [5] is described as follows: Hepatotoxicity in mouse infected with Candida albicans ATCC SC5314 assessed as change in plasma AST level at 4 mg/kg, ip administered ever other day for 12 days. The note with it: in vivo, 288 h, time 12 day. It is filed as toxicity, organism-based.
Data set [6] relates to Candida albicans. The data set can be described thus: Induction of morphological changes in Candida albicans assessed as leakage of cellular contents at 4 ug/ml measured after 72 hrs by TEM analysis. The note with it: dose 4.0 µg/ml. It is filed as functional, organism-based.
Data set [7] has as its system Mus musculus. The data set can be described thus: In vivo antifungal activity against Candida albicans ATCC SC5314 infected mouse assessed as increase in body weight at 4 mg/kg, ip administered ever other day for 12 days. It is filed as functional, organism-based. The note with it: time 12.0 day.
Data set [8] is described as follows: Drug uptake in fluconazole resistant Candida albicans strain 901 at 4 ug/ml by fluorescence microscopy. The note with it: dose 4 µg/ml. It is filed as ADME.
The nature of data set [9]: Toxicity in mouse infected with Candida albicans ATCC SC5314 assessed as pathological changes in liver at 4 mg/kg, ip administered ever other day for 12 days by hematoxylin and eosin staining based histopathological analysis. It is filed as organism-based. Particulars: in vivo, 288 h, time 12 day.
For data set [10], the system named is Candida albicans. The data set can be described thus: Antifungal activity against fluconazole resistant Candida albicans strain 901 assessed as fungal growth inhibition measured after 72 hrs by CLSI protocol based liquid medium dilution method. It is filed as functional.
Data set [11] deals with Candida albicans. Kind of data set: Induction of morphological changes in Candida albicans assessed as appearance of edema cavitation at 4 ug/ml measured after 72 hrs by TEM analysis. It is filed as functional, organism-based. Particulars: dose 4.0 µg/ml.
For data set [12], the system named is Mus musculus. The data set can be described thus: In vivo antifungal activity against Candida albicans ATCC SC5314 infected mouse model assessed as reduction in nuclear aggregation at 4 mg/kg, ip administered ever other day for 12 days by hematoxyin-eosin staining based microscopic analysis. Particulars: time 12.0 day. It is filed as functional, organism-based.

Data set [13] concerns Candida albicans. The data set can be described thus: Antifungal activity against fluconazole resistant Candida albicans strain 17# assessed as fungal growth inhibition measured after 72 hrs by CLSI protocol based liquid medium dilution method. It is filed as functional.
The subject of data set [14] is Mus musculus. Kind of data set: In vivo antifungal activity against Candida albicans ATCC SC5314 infected mouse assessed as reduction in fungal infection region at 4 mg/kg, ip administered ever other day for 12 days. It is filed as functional, organism-based. Particulars: time 12.0 day.
Data set [15] deals with Candida albicans. The data set can be described thus: Induction of apoptosis in Candida albicans ATCC SC5314 cells assessed as late apoptotic cells at 8 ug/ml incubated for 72 hrs by Annexin V-FITC/PI staining based flow cytometry method (reference value: 0.12%). It is filed as functional. Particulars: dose 8 µg/ml. For orientation: A flow cytometer gives signals particle by particle.

Converted amounts (≈) assume the structure as drawn. The source made the active and inactive calls. The rule behind the calls is not given here.

As a reminder, the MIC50 is an inhibitory concentration at the 50% level, which refers to growth in some studies and to a panel of isolates in others. `CC(C)[C@H](NC(=O)c1cccc2c1OCCO2)C(=O)N[C@@H](Cn1cncn1)c1ccccc1`: the MIC50 with Candida albicans [1] was found to be 0.125 µg/mL (≈ 0.278 µM); in the data set on Candida albicans [2], 0.5 µg/mL (≈ 1.11 µM); in the data set on Candida albicans [3] it was 0.5 µg/mL (≈ 1.11 µM); with Candida albicans [4] it was 2 µg/mL (≈ 4.45 µM); with Candida albicans [10], 1 µg/mL (≈ 2.22 µM); with Candida albicans [13], 1 µg/mL (≈ 2.22 µM). Also, the values for the Activity (in data set [5]; in data set [9]; in the data set with Candida albicans [15]) were 85.5 IU/L, “Non-Toxic” and 1.78%, respectively. Moreover, the outcome with Candida albicans [6], in the data set on Mus musculus [7], in the data set with Candida albicans [11], in the data set on Mus musculus [12] and with Mus musculus [14] was Active. The Drug uptake result in data set [8] is recorded as “Active”.
